Values after ≈ are worked out from the molar mass of the structure shown. Read-outs that look alike come from different tables or passages of the source.
Experiments:
VZV strain Ellen = assay: VZV antiviral (ELISA) assay; type: cell-based; conditions: for inhibition at 10 µg/mL: read-out: % inhibition 10 ug/ml VZV
Procedure, shortened: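 HFF cells infected with VZV Ellen at multiplicity below 0.1 overnight, then mixed infected/uninfected cells seeded with compound in DMEM/2% FBS and incubated three days at 37°C, 5% CO2.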

[1] = system: HCMV recombinant mutant virus whose genome contains the prokaryotic beta-glucuronidase gene; assay: microbe, parasite or virus in culture; type: cell-based, human cytomegalovirus; conditions: Human betaherpesvirus 5, Fibroblast
Procedure, shortened: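 Antiviral IC50 estimated from reduced reporter activity across compound amounts: lysates prepared 96 h after infection were tested with p-nitrophenyl- or methylumbelliferyl-glucuronide. Cells were human foreskin fibroblasts, infected alongside inhibitor with HCMV (e.g. RV145) expressing viral promoter-driven beta-glucuronidase.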

HSV- I = assay: HSV antiviral (ELISA) assay; type: cell-based; conditions: read-out: IC50 (ug/ml) HSV
Procedure: Vero cells (ATCC #CCL-81) are plated on 96-well tissue culture plates at 3.5x10^4 cells per 100µl tissue culture DMEM (Dulbecco's modified Eagle media) supplemented with 2% fetal bovine serum (FBS) in each well. After overnight incubation @ 37°C (in 5% CO2) and 30 minutes prior to infection with HSV- I (multiplicity of infection equal to 0.006), cells are either untreated, or treated with test compound (multiple concentrations) or reference standard drug control. After approximately 24 hours post-infection incubation @ 37°C (in 5% CO2), cells are fixed for ELISA assay. The primary antibody is murine anti-HSV glycoprotein D monoclonal primary antibody and the secondary antibody is goat anti-mouse IgG linked to β-galactosidase. Thus the extent of viral replication is determined by assessing β-galactosidase activity by quantifying the generation of the 4-methyl umbelliferone fluorescent cleavage product after addition of the methyl umbelliferyl-β-D-galactoside (Sigma #M1633) substrate on a microfluorimeter (365nm for excitation and 450nm for emission). Antiviral activity (IC50) of the test compound is determined by comparing the flourescence obtained in absence of compound to that obtained in the presence of compound.

[2] = Human alphaherpesvirus 3, HFF, read-out: IC50 (ug/ml) VZV, VZV strain Ellen, HFF cells, ELISA
[3] = read-out: IC50 ug/ml HCMV, HCMV, human foreskin fibroblasts
[4] = Human alphaherpesvirus 3, HFF, read-out: IC50 (ug/ml) VZV

Compound | IC50 (VZV strain Ellen; [2]) [µg/mL] | IC50 [1, 3] [µg/mL] | IC50 (HSV- I; Vero) [µg/mL] | inhibition at 10 µg/mL (VZV strain Ellen; Human alphaherpesvirus 3, HFF) [%] | IC50 (VZV strain Ellen; [4]) [µg/mL] | IC50 (HSV- I; HSV- I, Vero cells, ELISA) [µg/mL] | IC50 (VZV strain Ellen; Human alphaherpesvirus 3, VZV strain Ellen, HFF cells, ELISA, read-out: IC50 (ug/ml) VZV) [µg/mL] | IC50 ([1]; read-out: IC50 ug/ml HCMV) [µg/mL]
CCCCC(NC(=S)Nc1ccc(NC(=O)c2ccccc2F)cc1)c1ccc(F)cc1 (stereo not drawn) [Example 773, 2-Fluoro-N-(4-{3-[1-(4-fluoro-phenyl)-pentyl]-thioureido}-phenyl)-benzamide] | > 7.5 | 1.2 (≈ 2.65 µM) | > 10 |  |  |  |  | 
CC(C)Oc1ccc(NC(=S)Nc2ccc(NC(=O)c3ccccc3F)cc2)cc1Cl [Example 808, N-{4-[3-(3-Chloro-4-isopropoxy-phenyl)-thioureido]-phenyl}-2-fluoro-benzamide] | > 7.5 | > 10 | > 10 |  |  |  |  | 
COc1ccc(C(=O)Nc2ccc(NC(=S)Nc3ccc(OC)c(Cl)c3)cc2)cc1 [Example 820, N-{4-[3-(3-Chloro-4-methoxy-phenyl)-thioureido]-phenyl}-4-methoxy-benzamide] |  | 8 (≈ 18.1 µM) |  | 20 | > 10 | 4 (≈ 9.05 µM) |  | 
Nc1c(Cl)cccc1NC(=S)Nc1ccc(NC(=O)c2c(F)cccc2F)cc1 [Example 465, N-{4-[3-(2-Amino-3-chloro-phenyl)-thioureido]-phenyl}-2,6-difluoro-benzamide] |  | > 10 |  | 31 | > 10 | > 10 |  | 
CCCCN(C)c1cc(NC(=S)Nc2ccc(NC(=O)c3ccccc3F)cc2)cc(C(F)(F)F)c1 [Example 598, N-(4-{3-[3-(Butyl-methyl-amino)-5-trifluoromethyl-phenyl]-thioureido}-phenyl)-2-fluoro-benzamide] | > 10 | > 10 | > 10 |  |  |  |  | 
CCCOc1ccc(NC(=S)Nc2ccc(NC(=O)c3ccccc3F)cc2)cc1Cl [Example 807, N-{4-[3-(3-Chloro-4-propoxy-phenyl)-thioureido]-phenyl}-2-fluoro-benzamide] | 0.9 (≈ 1.97 µM) | 10 (≈ 21.8 µM) | > 10 |  |  |  |  | 
CC(NC(=S)Nc1ccc(NC(=O)c2ccccc2F)cc1)c1ccc(Cl)cc1 (stereo not drawn) [Example 781, N-(4-{3-[1-(4-Chloro-phenyl)-ethyl]-thioureido}-phenyl)-2-fluoro-benzamide] | 0.6 (≈ 1.4 µM) | 1.8 (≈ 4.21 µM) | > 10 |  |  |  |  | 
CN1CCC(N(C)c2ccc(NC(=S)Nc3ccc(NC(=O)c4ccccc4F)cc3)cc2Cl)C1 (stereo not drawn) [Example 332, N-[4-(3-{3-Chloro-4-[methyl-(1-methyl-pyrrolidin-3-yl)-amino]-phenyl}-thioureido)-phenyl]-2-fluoro-benzamide] |  | 0.9 (≈ 1.76 µM) |  | 90 | 8 (≈ 15.6 µM) | 1 (≈ 1.95 µM) |  | 
CC(NC(=S)Nc1ccc(NC(=O)c2ccccc2C(F)(F)F)cc1)c1cc2ccccc2o1 (stereo not drawn) [Example 974, N-{4-[3-(1-Benzofuran-2-yl-ethyl)-thioureido]-phenyl}-2-trifluoromethyl-benzamide] | > 7.5 | > 10 | > 10 |  |  |  |  | 
O=C(Nc1ccc(NC(=S)NCc2ccc3c(c2)OCO3)cc1)c1ccccc1F [Example 540, N-[4-(3-Benzo[1,3]dioxol-5-ylmethyl-thioureido)-phenyl]-2-fluoro-benzamide] |  |  |  |  |  | > 10 | > 10 | > 0.5
O=C(Nc1ccc(NC(=S)Nc2ccc3scnc3c2)cc1)c1ccccc1F [Example 484, N-[4-(3-Benzothiazol-5-yl-thioureido)-phenyl]-2-fluoro-benzamide] |  | > 10 |  | 28 | > 10 | 0.4 (≈ 0.947 µM) |  | 
CC(C)c1cccc(NC(=S)Nc2ccc(NC(=O)c3ccccc3F)cc2)c1 [Example 452, 2-Fluoro-N-{4-[3-(3-isopropyl-phenyl)-thioureido]-phenyl}-benzamide] |  | 2 (≈ 4.91 µM) |  | 75 | 1 (≈ 2.45 µM) | 4 (≈ 9.82 µM) |  | 
COc1cccc(C(=O)Nc2ccc(NC(=S)Nc3ccc(C)c(Cl)c3)cc2)c1 [Example 232, N-{4-[3-(3-Chloro-4-methyl-phenyl)-thioureido]-phenyl}-3-methoxy-benzamide] |  | > 10 |  | 21 | > 10 | 1 (≈ 2.35 µM) |  | 

Source: EP1137645B1, “ALPHA-METHYLBENZYL-CONTAINING THIOUREA INHIBITORS OF HERPES VIRUSES CONTAINING A […] GROUP” (Wyeth, priority 1998, dated 2000)
